From patent publication US9115101B2 (Genentech, Inc., priority 2012, dated 2015)

target: T1, RORc ligand binding domain (Homo sapiens, UniProt P51449); assay: In Vitro RORc Ligand Binding Assay (25-[3H]hydroxycholesterol radioligand filtration); settings: In Vitro RORc Ligand Binding Assay; Table 4; read-out: RORc IC50
T1 construct: host or cells: E. coli
T1 sequence (P51449 269-508 limits assumed): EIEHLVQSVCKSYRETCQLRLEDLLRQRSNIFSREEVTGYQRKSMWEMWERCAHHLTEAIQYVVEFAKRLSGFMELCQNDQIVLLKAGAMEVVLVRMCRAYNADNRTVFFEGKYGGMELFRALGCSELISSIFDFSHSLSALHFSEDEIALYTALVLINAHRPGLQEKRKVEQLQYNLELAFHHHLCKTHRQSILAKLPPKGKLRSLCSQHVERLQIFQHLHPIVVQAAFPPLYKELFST

Row | Compound | IC50
1 | CC(=O)N1CCN(c2ccc(CN3CCC(C)CC(c4ccccc4)S3(=O)=O)c(F)c2)CC1 (single isomer, unassigned) [Example 333, 1-{4-[3-Fluoro-4-(5-methyl-1,1-dioxo-7-phenyl-[1,2]thiazepan-2-ylmethyl)-phenyl]-piperazin-1-yl}-ethanone] | 0.032 µM
2 | CC(=O)N1CCN(c2ccc(CN3CC(C)CCC(c4ccccc4)S3(=O)=O)c(F)c2)CC1 (single isomer, unassigned) [Example 334, 1-{4-[3-Fluoro-4-(4-methyl-1,1-dioxo-7-phenyl-[1,2]thiazepan-2-ylmethyl)-phenyl]-piperazin-1-yl}-ethanone] | 0.005 µM
3 | CC(=O)N1CCN(c2ccc(CN3CCCCC(c4ccccc4)S3(=O)=O)c(F)c2)[C@@H](C)C1 (single isomer, unassigned) [Example 335, 1-{4-[4-(1,1-Dioxo-7-phenyl-[1,2]thiazepan-2-ylmethyl)-3-fluoro-phenyl]-3-methyl-piperazin-1-yl}-ethanone] | 0.008 µM
4 | O=S1(=O)C(c2ccccc2)CCCCN1Cc1ccc(N2CCC(n3cnnc3)CC2)cc1 (single isomer, unassigned) [Example 336, 7-Phenyl-2-[4-(4-[1,2,4]triazol-4-yl-piperidin-1-yl)-benzyl]-[1,2]thiazepane 1,1-dioxide] | 0.028 µM
5 | O=c1[nH]nc(C2CCN(c3ccc(CN4CCCCC(c5ccccc5)S4(=O)=O)cc3)CC2)o1 (single isomer, unassigned) [Example 337, 5-{1-[4-(1,1-Dioxo-7-phenyl-[1,2]thiazepan-2-ylmethyl)-phenyl]-piperidin-4-yl}-3H-[1,3,4]oxadiazol-2-one] | 0.024 µM
6 | CC(=O)N1CCN(c2ccc(CN3CC(C)CCC(c4ccccc4)S3(=O)=O)c(F)c2)CC1 (single isomer, unassigned) [Example 338, 1-{4-[3-Fluoro-4-(4-methyl-1,1-dioxo-7-phenyl-[1,2]thiazepan-2-ylmethyl)-phenyl]-piperazin-1-yl}-ethanone] | 0.012 µM
7 | CC(=O)N1CCN(c2ccc(CN3CC(C)CCC(c4ccccc4)S3(=O)=O)c(F)c2)CC1 (single isomer, unassigned) [Example 339, 1-{4-[3-Fluoro-4-(4-methyl-1,1-dioxo-7-phenyl-[1,2]thiazepan-2-ylmethyl)-phenyl]-piperazin-1-yl}-ethanone] | 0.015 µM
8 | CC(=O)N1CCN(c2ccc(CN3CC(C)CCC(c4ccccc4)S3(=O)=O)c(F)c2)CC1 (single isomer, unassigned) [Example 340, 1-{4-[3-Fluoro-4-(4-methyl-1,1-dioxo-7-phenyl-[1,2]thiazepan-2-ylmethyl)-phenyl]-piperazin-1-yl}-ethanone] | 0.054 µM
9 | CC(=O)N1CCN(c2ccc(CN3CCCCC(c4ccccc4)S3(=O)=O)c(F)c2)[C@@H](C)C1 (single isomer, unassigned) [Example 341, 1-{4-[4-(1,1-Dioxo-7-phenyl-[1,2]thiazepan-2-ylmethyl)-3-fluoro-phenyl]-3-methyl-piperazin-1-yl}-ethanone] | 0.026 µM
10 | O=S1(=O)C(c2ccccc2)CCCCN1Cc1ccc(N2CCC(n3cnnc3)CC2)cc1 (single isomer, unassigned) [Example 342, 7-Phenyl-2-[4-(4-[1,2,4]triazol-4-yl-piperidin-1-yl)-benzyl]-[1,2]thiazepane 1,1-dioxide] | 0.075 µM
11 | O=c1[nH]nc(C2CCN(c3ccc(CN4CCCCC(c5ccccc5)S4(=O)=O)cc3)CC2)o1 (single isomer, unassigned) [Example 343, 5-{1-[4-(1,1-Dioxo-7-phenyl-[1,2]thiazepan-2-ylmethyl)-phenyl]-piperidin-4-yl}-3H-[1,3,4]oxadiazol-2-one] | 0.449 µM
12 | CC(=O)N1CCN(c2ccc(CN3CCCCC(c4ccccc4)S3(=O)=O)cc2F)CC1 (single isomer, unassigned) [Example 344, 1-{4-[4-(1,1-Dioxo-7-phenyl-[1,2]thiazepan-2-ylmethyl)-2-fluoro-phenyl]-piperazin-1-yl}-ethanone] | 0.032 µM
13 | CS(=O)(=O)N1CCC(Nc2ccc(CN3CCCCC(c4ccccc4)S3(=O)=O)c(F)c2)CC1 (single isomer, unassigned) [Example 345, [4-(1,1-Dioxo-7-phenyl-[1,2]thiazepan-2-ylmethyl)-3-fluoro-phenyl]-(1-methanesulfonyl-piperidin-4-yl)-amine] | 0.008 µM
14 | CC(=O)N1CCN(c2ccc(CN3CCCCC(c4ccccc4)S3(=O)=O)cc2F)CC1 (single isomer, unassigned) [Example 346, 1-{4-[4 (1,1-Dioxo-7-phenyl-[1,2]thiazepan-2-ylmethyl)-2-fluoro-phenyl]-piperazin-1-yl}-ethanone] | 0.05 µM
15 | CS(=O)(=O)N1CCC(Nc2ccc(CN3CCCCC(c4ccccc4)S3(=O)=O)c(F)c2)CC1 (single isomer, unassigned) [Example 347, [4-(1,1-Dioxo-7-phenyl-[1,2]thiazepan-2-ylmethyl)-3-fluoro-phenyl]-(1-methanesulfonyl-piperidin-4-yl)-amine] | 0.005 µM
16 | CC(=O)N1CCN(c2ccc(CN3CCC(c4ccc(F)cc4)S3(=O)=O)c(F)c2)CC1 (stereo not drawn) [Example 9, 1-(4-{3-Fluoro-4-[5-(4-fluoro-phenyl)-1,1-dioxo-isothiazolidin-2-ylmethyl]-phenyl}-piperazin-1-yl)-ethanone] | 7.6 µM

same assay, conditions: read-out: RORc IC50

Row | Compound | IC50
17 | C[C@H]1CCC(c2ccccc2)S(=O)(=O)N1Cc1ccc(C(=O)NC2CCC(O)C2)cc1 (single isomer, unassigned) [Example 408] | 3.52 µM
18 | C[C@H]1CCC(c2ccccc2)S(=O)(=O)N1Cc1ccc(C(=O)NC2CCC(O)C2)cc1 (single isomer, unassigned) [Example 409] | 1.88 µM
19 | C[C@H]1CCC(c2ccccc2)S(=O)(=O)N1Cc1ccc(C(=O)NC2CCC(O)C2)cc1 (single isomer, unassigned) [Example 410] | 6.5 µM
20 | C[C@H]1CCC(c2ccccc2)S(=O)(=O)N1Cc1ccc(C(=O)NC2CCC(O)C2)cc1 (single isomer, unassigned) [Example 411] | 3.52 µM
21 | C[C@H]1CCC(c2ccccc2)S(=O)(=O)N1Cc1ccc(N2CCC(C)(n3cnnc3)CC2)cc1F (single isomer, unassigned) [Example 412] | 0.585 µM
22 | C[C@H]1CCC(c2ccccc2)S(=O)(=O)N1Cc1ccc(N2CCC(C)(n3cnnc3)CC2)cc1F (single isomer, unassigned) [Example 413] | 0.032 µM
23 | C[C@H]1CCC(c2ccccc2)S(=O)(=O)N1Cc1ccc(N2CCN3C(=O)OCC3C2)cc1F (single isomer, unassigned) [Example 418] | 0.129 µM
24 | C[C@H]1CCC(c2ccccc2)S(=O)(=O)N1Cc1ccc(N2CCN3C(=O)OCC3C2)cc1F (single isomer, unassigned) [Example 420] | 0.028 µM
25 | C[C@H]1CCC(c2ccccc2)S(=O)(=O)N1Cc1ccc(N2CC(n3cnnc3)C2)cc1F (single isomer, unassigned) [Example 429] | 0.316 µM
26 | C[C@H]1CCC(c2ccccc2)S(=O)(=O)N1Cc1ccc(OC[C@H]2CCC(=O)N2)cc1 (single isomer, unassigned) [Example 450] | 1.05 µM
27 | C[C@H]1CCC(c2ccccc2)S(=O)(=O)N1Cc1ccc(OC[C@@H]2CCC(=O)N2)cc1 (single isomer, unassigned) [Example 454] | 0.62 µM
